This is an account of results in ChEMBL document CHEMBL1130640, “Lactate cannot substitute for alanine in d4T-based anti-HIV nucleotide prodrugs--despite efficient esterase-mediated hydrolysis” (Bioorg Med Chem Lett, 1998).

Common to all, as to conditions: Homo sapiens
For assay [1], the system named is CEM-TK(-). In words: Compound was tested for anti-HIV-2 activity in CEM/TK- cell line. The format is functional, cell-based.
For assay [2], the system named is CCRF-CEM. The experiment in a line: Compound was tested for anti-HIV-2 activity in CEM/0 cell line. The format is functional, cell-based.
The subject of assay [3] is CCRF-CEM. In words: Compound was tested for anti-HIV-1 activity in CEM/0 cell line. The format is functional, cell-based.
Assay [4] deals with CCRF-CEM. The experiment in a line: Compound was tested for cytostatic activity in CEM cell line. It counts as functional.
Assay [5] concerns CEM-TK(-). The experiment in a line: Compound was tested for anti-HIV-2 activity in CEM/TK- cell line. The format is functional, cell-based.
Assay [6] has as its system CCRF-CEM. The experiment in a line: Compound was tested for anti-HIV-1 activity in CEM/0 cell line. It counts as functional, cell-based.
Assay [7] deals with CCRF-CEM. The experiment in a line: Compound was tested for cytostatic activity in CEM cell line. The format is functional.
Assay [8] relates to CCRF-CEM. In words: Compound was tested for anti-HIV-2 activity in CEM/0 cell line. It counts as functional, cell-based.

A word on the EC50: it is the concentration giving half of the maximal effect. For orientation: CC50 means the concentration that lowers cell viability or growth by half. A higher CC50 goes with lower toxicity to the cells. Turning to `COC(=O)C(C)OP(=O)(OCC1C=CC(n2cc(C)c(=O)[nH]c2=O)O1)Oc1ccccc1` (centres undefined), the 50% effective concentration (EC50) in assay [1] is over 250 µM; in assay [2], 5 µM; in assay [3], 4 µM. In assay [4], this compound returned a CC50 of at least 250 µM.
For the compound `COC(=O)COP(=O)(OCC1C=CC(n2cc(C)c(=O)[nH]c2=O)O1)Oc1ccccc1` (centres undefined), the EC50 is over 250 µM in assay [1], 50 µM in assay [2] and 27.5 µM in assay [3]. The compound further displayed a CC50 in assay [4] of over 250 µM.
As for `CCOC(=O)C(C)OP(=O)(OCC1C=CC(n2cc(C)c(=O)[nH]c2=O)O1)Oc1ccccc1` (centres undefined), the concentration for a half-maximal effect (EC50) came out at 160 µM in assay [1], 23 µM in assay [2] and 28 µM in assay [3]. Further, the CC50 in assay [4] is over 250 µM.
In assay [1], `COC(=O)C(C)NP(=O)(OC[C@@H]1C=C[C@H](n2cc(C)c(=O)[nH]c2=O)O1)Oc1ccccc1` (some centres undefined) yielded an EC50 of 0.075 µM. The half-maximal cytotoxic concentration (CC50) in assay [4] was over 100 µM.
With `CCOC(=O)COP(=O)(OCC1C=CC(n2cc(C)c(=O)[nH]c2=O)O1)Oc1ccccc1` (centres undefined), the EC50 was 150 µM in assay [1], 12.5 µM in assay [2] and 12.5 µM in assay [3]. In assay [4], the CC50 was at least 250 µM.
In assay [1], `COC(=O)CNP(=O)(OCC1C=CC(n2cc(C)c(=O)[nH]c2=O)O1)Oc1ccccc1` (centres undefined) had a half-maximal effective concentration (EC50) of 7 µM. The compound also had a CC50 in assay [4] of at least 250 µM.
Turning to `Cc1cn([C@H]2C=C[C@@H](CO)O2)c(=O)[nH]c1=O` [STAVUDINE], the figures for the concentration for a half-maximal effect (EC50) in assay [5], in assay [6] and in assay [8] were over 100 µM, 0.25 µM and 1.2 µM, respectively. This compound also showed a CC50 in assay [7] of over 100 µM.
